# Target: T1, human CCR6 (Homo sapiens, UniProt P51684)
# T1 construct: expressed in transfected cells; host or cells: Ba/F3 cells (mouse pro-B line)
# T1 sequence (P51684 1-374): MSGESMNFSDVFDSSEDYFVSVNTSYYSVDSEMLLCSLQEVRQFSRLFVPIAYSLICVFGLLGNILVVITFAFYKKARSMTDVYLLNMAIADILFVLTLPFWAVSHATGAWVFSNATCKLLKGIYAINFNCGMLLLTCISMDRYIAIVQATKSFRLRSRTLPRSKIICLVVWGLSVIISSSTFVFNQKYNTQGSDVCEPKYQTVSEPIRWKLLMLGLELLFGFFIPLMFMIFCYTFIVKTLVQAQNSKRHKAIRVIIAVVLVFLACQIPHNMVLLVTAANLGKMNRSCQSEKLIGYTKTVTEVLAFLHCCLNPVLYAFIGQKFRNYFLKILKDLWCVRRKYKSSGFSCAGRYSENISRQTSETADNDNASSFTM
# Assay: Migration assay (chemotaxis, ChemoTX)
# Format: cell-based
# Details: hCCR6-transfected Ba/F3 cells in human serum, migration to recombinant human CCL20 10 nM, 37° C. 45 minutes; read-out: Potency (IC50 value in the migration assay)
# Procedure, shortened: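 Ba/F3 cells transfected with human CCR6 and butyrate-primed for 24 h were suspended at 4 million/ml in human serum with compound, serially diluted from a 1 μM final top concentration. Cells migrated through a 5-μm polycarbonate membrane toward 10 nM human CCL20 for 45 min at 37 °C. Migrated cells were quantified by CyQUANT fluorescence.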
row,IC50 [nM],SMILES
1,< 1,O=C1CN(c2ccc(-c3ccc(S(=O)(=O)N4CC[C@@H](Nc5ccc(C(F)(F)F)cn5)[C@@H](O)C4)cc3)cn2)CCN1 [Compound 178]
2,< 1,"NC(=O)c1ccc(-c2ccc(S(=O)(=O)N3CC[C@@H](Nc4ccc(C(F)(F)F)cn4)[C@@H](O)C3)cc2)cn1 [Example 28, 5-(4-(((3S,4R)-3-Hydroxy-4-((5-(trifluoromethyl)pyridin-2-yl)amino)piperidin-1-yl)sulfonyl)phenyl)picolinamide]"
3,< 1,O=C1Nc2ncc(-c3ccc(S(=O)(=O)N4CC[C@@H](Nc5ccc(C(F)(F)F)cn5)[C@@H](O)C4)cc3)cc2C12CC2 [Compound 212]
4,< 1,CN(C)[C@H]1C[C@@H](Nc2ccc(-c3ccc(S(=O)(=O)N4CC[C@@H](Nc5ccc(C(F)(F)F)cn5)[C@@H](O)C4)cc3)cn2)C1 [Compound 96]
5,< 1,"O=c1[nH]c2ccc(-c3ccc(S(=O)(=O)N4CC[C@@H](Nc5ccc(C(F)(F)F)cn5)[C@@H](O)C4)cc3)cc2[nH]1 [Example 47, 5-(4-(((3S,4R)-3-hydroxy-4-((5-(trifluoromethyl)pyridin-2-yl)amino)piperidin-1-yl)sulfonyl)phenyl)-1,3-dihydro-2H-benzo[d]imidazol-2-one]"
6,< 1,O=S(=O)(c1ccc(-c2ccc(N3CCC(O)CC3)nc2)cc1)N1CC[C@@H](Nc2ccc(C(F)(F)F)cn2)[C@@H](O)C1 [Compound 171]
7,< 1,O=S(=O)(c1ccc(-c2ccnc(N3CC[C@@H](O)C3)c2)cc1)N1CC[C@@H](Nc2ccc(C(F)(F)F)cn2)[C@@H](O)C1 [Compound 134]
8,1 to 10,"O=C(NO)c1cc(-c2ccc(S(=O)(=O)N3CC[C@@H](Nc4ccc(C(F)(F)F)cn4)[C@@H](O)C3)cc2)ccn1 [Compound 74, N-hydroxy-4-(4-(((3S,4R)-3-hydroxy-4-((5-(trifluoromethyl)pyridin-2-yl)amino)piperidin-1-yl)sulfonyl)phenyl)picolinamide]"
9,< 1,"O=S(=O)(c1ccc(-c2ccc(N3CCOCC3)nc2)cc1)N1CC[C@@H](Nc2ccc(C(F)(F)F)cn2)[C@@H](O)C1 [Compound 89, (3S,4R)-1-((4-(6-morpholinopyridin-3-yl)phenyl)sulfonyl)-4-((5-(trifluoromethyl)pyridin-2-yl)amino)piperidin-3-ol]"
10,< 1,Nc1ccc(-c2ccc(S(=O)(=O)N3CC[C@@H](Nc4ccc(C(F)(F)F)cn4)[C@@H](O)C3)cc2)cn1 [Compound 160]
11,< 1,NC1CCN(c2ccc(-c3ccc(S(=O)(=O)N4CC[C@@H](Nc5ccc(C(F)(F)F)cn5)[C@@H](O)C4)cc3)cn2)CC1 [Compound 106]
12,1 to 10,CN(C)C1CN(c2ccc(-c3ccc(S(=O)(=O)N4CC[C@@H](Nc5ccc(C(F)(F)F)cn5)[C@@H](O)C4)cc3)cn2)C1 [Compound 107]
13,< 1,O=C1NCC[C@@H]1Nc1ccc(-c2ccc(S(=O)(=O)N3CC[C@@H](Nc4ccc(C(F)(F)F)cn4)[C@@H](O)C3)cc2)cn1 [Compound 170]
14,< 1,O=S(=O)(c1ccc(-c2ccnc(N3CC(O)C3)c2)cc1)N1CC[C@@H](Nc2ccc(C(F)(F)F)cn2)[C@@H](O)C1 [Compound 137]
15,10 to 1000,O=C(O)c1cc(-c2ccc(S(=O)(=O)N3CC[C@@H](Nc4ccc(C(F)(F)F)cn4)[C@@H](O)C3)cc2)ccn1 [Compound 208]
16,< 1,"CNC(=O)c1cc(-c2ccc(S(=O)(=O)N3CC[C@@H](Nc4ccc(C(F)(F)F)cn4)[C@@H](O)C3)cc2)ccn1 [Example 50, 4-(4-(((3S,4R)-3-hydroxy-4-((5-(trifluoromethyl)pyridin-2-yl)amino)piperidin-1-yl)sulfonyl)phenyl)-N-methylpicolinamide]"

# More lines, now with the values behind:
row,SMILES,IC50 [nM]
1,CNC(=O)N1Cc2cc(-c3ccc(S(=O)(=O)N4CC[C@@H](Nc5ccc(C(F)(F)F)cn5)[C@@H](O)C4)cc3)cc(C)c2C1 [Compound 188],< 1
2,O=S(=O)(c1ccc(-c2ccnc(N3CCCCC3)c2)cc1)N1CC[C@@H](Nc2ccc(C(F)(F)F)cn2)[C@@H](O)C1 [Compound 145],< 1
3,"Cc1cc(-c2ccc(S(=O)(=O)N3CC[C@@H](Nc4ccc(C(F)(F)F)cn4)[C@@H](O)C3)cc2)cc2c1C(=O)NC2 [Compound 78, 5-(4-(((3S,4R)-3-hydroxy-4-((5-(trifluoromethyl)pyridin-2-yl)amino)piperidin-1-yl)sulfonyl)phenyl)-7-methylisoindolin-1-one]",< 1
4,"Cc1cc(C(F)(F)F)cnc1N[C@@H]1CCN(S(=O)(=O)c2ccc(-c3cnc(C(N)=O)n3C)cc2)C[C@@H]1O [Compound 83, 5-[4-[[(3S,4R)-3-hydroxy-4-[[3-methyl-5-(trifluoromethyl)-2-pyridyl]amino]-1-piperidyl]sulfonyl]phenyl]-1-methyl-imidazole-2-carboxamide]",< 1
5,NC(=O)c1cc(-c2ccc(S(=O)(=O)N3CC[C@@H](Nc4ccc(C(F)(F)F)cn4)[C@@H](O)C3)cc2)cc(N)n1 [Compound 202],< 1
6,CN(C)CCN(C)c1cc(-c2ccc(S(=O)(=O)N3CC[C@@H](Nc4ccc(C(F)(F)F)cn4)[C@@H](O)C3)cc2)ccn1 [Compound 138],< 1
7,"CC(C)(C)OC(=O)NCCn1cc(C#N)c2cc(-c3ccc(S(=O)(=O)N4CC[C@@H](Nc5ccc(C(F)(F)F)cn5)[C@@H](O)C4)cc3)cnc21 [Example 29, tert-Butyl (2-(3-cyano-5-(4-(((3S,4R)-3-hydroxy-4-((5-(trifluoromethyl)pyridin-2-yl)amino)piperidin-1-yl)sulfonyl)phenyl)-1H-pyrrolo[2,3-b]pyridin-1-yl)ethyl)carbamate]",< 1
8,Cc1cnccc1-c1ccc(S(=O)(=O)N2CC[C@@H](Nc3ccc(C(F)(F)F)cn3)[C@@H](O)C2)cc1 [Compound 164],< 1
9,"Cc1c(-c2ccc(S(=O)(=O)N3CC[C@@H](Nc4ccc(C(F)(F)F)cn4)[C@@H](O)C3)cc2)ccc2[nH]nc(C#N)c12 [Example 35, 5-(4-(((3S,4R)-3-hydroxy-4-((5-(trifluoromethyl)pyridin-2-yl)amino)piperidin-1-yl)sulfonyl)phenyl)-4-methyl-1H-indazole-3-carbonitrile]",< 1
10,"Cc1c(-c2ccc(S(=O)(=O)N3CC[C@@H](Nc4ccc(C(F)(F)F)cn4)[C@@H](O)C3)cc2)cnc2[nH]cc(C#N)c12 [Example 56, 5-(4-(((3S,4R)-3-hydroxy-4-((5-(trifluoromethyl)pyridin-2-yl)amino)piperidin-1-yl)sulfonyl)phenyl)-4-methyl-1H-pyrrolo[2,3-b]pyridine-3-carbonitrile]",< 1
11,O=S(=O)(c1ccc(-c2cnc3[nH]nc(-c4ncc[nH]4)c3c2)cc1)N1CC[C@@H](Nc2ccc(C(F)(F)F)cn2)[C@@H](O)C1 [Compound 191],< 1
12,NC(=O)c1cccc(-c2ccc(S(=O)(=O)N3CC[C@@H](Nc4ccc(C(F)(F)F)cn4)[C@@H](O)C3)cc2)c1 [Compound 117],< 1
13,Cc1cncc(-c2ccc(S(=O)(=O)N3CC[C@@H](Nc4ccc(C(F)(F)F)cn4)[C@@H](O)C3)cc2)c1 [Compound 152],< 1
14,"CN(C)C(=O)c1cc(-c2ccc(S(=O)(=O)N3CC[C@@H](Nc4ccc(C(F)(F)F)cn4)[C@@H](O)C3)cc2)ccn1 [Example 40, 4-(4-(((3S,4R)-3-Hydroxy-4-((5-(trifluoromethyl)pyridin-2-yl)amino)piperidin-1-yl)sulfonyl)phenyl)-N,N-dimethylpicolinamide]",1 to 10
15,Cc1c(-c2ccc(S(=O)(=O)N3CC[C@@H](Nc4ccc(C(F)(F)F)cn4)[C@@H](O)C3)cc2)cnc(N)c1C [Compound 148],< 1
16,Cc1cc(C(N)=O)ncc1-c1ccc(S(=O)(=O)N2CC[C@@H](Nc3ccc(C(F)(F)F)cn3)[C@@H](O)C2)cc1 [Compound 147],< 1
17,NS(=O)(=O)c1cc(-c2ccc(S(=O)(=O)N3CC[C@@H](Nc4ccc(C(F)(F)F)cn4)[C@@H](O)C3)cc2)ccn1 [Compound 181],< 1
18,"Cn1c(-c2ccc(S(=O)(=O)N3CC[C@@H](Nc4ccc(C(F)(F)F)cn4)[C@@H](O)C3)cc2)cnc1C(N)=O [Compound 71, 5-(4-(((3S,4R)-3-hydroxy-4-((5-(trifluoromethyl)pyridin-2-yl)amino)piperidin-1-yl)sulfonyl)phenyl)-1-methyl-1H-imidazole-2-carboxamide]",< 1
19,"O=S(=O)(c1ccc(-c2ccnc(-c3ncc[nH]3)c2)cc1)N1CC[C@@H](Nc2ccc(C(F)(F)F)cn2)[C@@H](O)C1 [Example 52, (3S,4R)-1-((4-(2-(1H-imidazol-2-yl)pyridin-4-yl)phenyl)sulfonyl)-4-((5-(trifluoromethyl)pyridin-2-yl)amino)piperidin-3-ol]",< 1
20,"O=S(=O)(c1ccc(-c2cnc3[nH]ccc3c2C(F)(F)F)cc1)N1CC[C@@H](Nc2ccc(C(F)(F)F)cn2)[C@@H](O)C1 [Example 22, (3S,4R)-1-((4-(4-(trifluoromethyl)-1H-pyrrolo[2,3-b]pyridin-5-yl)phenyl)sulfonyl)-4-((5-(trifluoromethyl)pyridin-2-yl)amino)piperidin-3-ol]",< 1
21,"Cc1c(-c2ccc(S(=O)(=O)N3CC[C@@H](Nc4ccc(C(F)(F)F)cn4)[C@@H](O)C3)cc2)ccnc1C(N)=O [Example 6, 4-(4-(((3S,4R)-3-Hydroxy-4-((5-(trifluoromethyl)pyridin-2-yl)amino)piperidin-1-yl)sulfonyl)phenyl)-3-methylpicolinamide]",< 1
